“Also recorded” adds a separate entry of the source.

Test [1] addresses T1, Asp 295 Val mutation type ATP5B (Homo sapiens, UniProt P06576, D295V).
T1 construct: a complete length cDNA coding for an Asp 295 Val mutation type ATP5B was obtained; made in house
Description: GST-DHFR / MTX-phenformin pull-down, Asp 295 Val mutation type ATP5B. It is filed as binding. To be noted: pull-down assay as Example 5(4).

The target in test [2] is T2, human ATP5B (Homo sapiens, UniProt P06576).
T2 construct: an attempt was made to amplify complete length cDNA of human ATP5B; made in house; host or cells: cell-free: TNT Quick Coupled Transcription/Translation System (Promega) from pcDNA-ATP5B; GST-DHFR from E. coli BL21
Kind of test: competitive inhibition of binding of ATP5B and MTX-phenformin. To be noted: MTX-phenformin 10 μM; free phenformin 10 μM; compounds A and B 'addition of 10'.

Test [3] addresses T3, Glu 175 Val mutation type ATP5B (Homo sapiens, UniProt P06576, E175V).
T3 construct: a complete length cDNA of about 1600 base pairs coding for a Glu 175 Val mutation type ATP5B; made in house
Kind of test: GST-DHFR / MTX-phenformin pull-down, Glu 175 Val mutation type ATP5B. It counts as binding. Particulars: pull-down assay as Example 5(4). The text has this:
Using the aforementioned expression plasmid pcDNA-ATP5B as the template and using respective sets of primers of the nucleotide sequences represented by SEQ ID NO:87 and SEQ ID NO:81, and SEQ ID NO:80 and SEQ ID NO:88, two DNA fragments of about 530 base pairs of 5′-side and about 1080 base pairs of 3′-side of cDNA having a mutation in which the 175th position of amino acid, Glu, of human ATP5B was replaced by Val were amplified by PCR. All of the PCR reaction, cloning stem and determination of nucleotide sequence were the same as the methods shown in Example 5(1). Using an equivalent mixture of the thus obtained two PCR products as the template, PCR was carried out using the primers represented by SEQ ID NO:80 and SEQ ID NO:81 this time, thereby obtaining a complete length cDNA of about 1600 base pairs coding for a Glu 175 Val mutation type ATP5B. The thus obtained cDNA fragment was cloned into an expression vector (pcDNA3.1/V5-His-TOPO; Invitrogen), and then the nucleotide sequence inserted into the vector was identified using the synthetic primer represented by SEQ ID NO:90 to confirm that the Glu 175 Val mutation was formed in ATP5B. The thus obtained expression plasmid is referred to as pcDNA-ATP5B(E175V) hereinafter. […]

The target in a further test is T4, ATP5B (Rattus norvegicus, UniProt P10719).
T4 construct: a rat skeletal muscle-derived cell, L 6 cell (ATCC); endogenous in cells; host or cells: L6 (rat skeletal muscle)
Kind of test: GST-HSPA4 pull-down from L 6 cell extract, silver staining and mass spectrum identification. It is filed as binding. Particulars: phenformin 50 nM added vs no addition. From the text: Using the aforementioned method shown in Example 2(2), attempt was made to screen the target protein of biguanide whose direct target protein has been unclear in spite of its significant drug effect as an agent for treating diabetes. Firstly, a rat skeletal muscle-derived cell, L 6 cell (ATCC), was suspended in a minimum essential medium (αMEM, Invitrogen) containing 10% fetal calf serum (FCS) and cultured on a collagen-coated plate of 15 cm in diameter (Asahi Techno Glass) until reaching the confluent state. The resulting cells were washed twice with 15 ml of ice-cooled phosphate buffer (PBS) and then lysed by adding 2.0 ml of the aforementioned buffer A, and the cell extract was collected using a scraper. […] After 1 hour of shaking at 4° C., the protein binding to the GST-HSPA4 on beads was co-precipitated by centrifugation. In this connection, in order to prevent drop out of the molecular chaperone protein from the beads, the molecular chaperone protein and beads were used by chemically crosslinking them in advance by a conventionally known method. […] As a result, a large protein band of about 60 kDa, in which its amount to bind to the molecular chaperone protein is reduced at the time of adding phenformin in comparison with the case of no addition, was detected. […]

The next test relates to AMPK. Kind of test: AMPK activation ability detection in HeLa S3 cell (anti-phospho AMPK western blotting). It is filed as cell-based, human. Particulars: phenformin 1 mM, 1 hr. The procedure:
This expression plasmid pcDNA-LKB1 and the pcDNA-ATP5B prepared in the aforementioned Example 5(1) or an empty vector (pcDNA3.1) (Invitrogen) were transferred into HeLa S3 cell. The HeLa S3 cell (ATCC) was cultured in a 6 well culture plate (35 mm in well diameter) until it reached a state of 70% confluent, by adding 2 ml of a minimum essential medium DMEM (Gibco) containing 10% fetal bovine serum (Sigma) to each well of the culture plate. The medium was substituted by 1 ml per well of a serum-free medium OPTI MEM I (Invitrogen), and 3.0 μg/well of each of the empty vector (pcDNA3.1), pcDNA-LKB1 and pcDNA-ATP5B was transiently transferred using Lipofect amine 2000 (Invitrogen). After 12 hours of the culturing, this was substituted by 2 ml/well of DMEM containing 10% of fetal bovine serum from which low molecular substances had been removed by a charcoal treatment, and further cultured for 36 hours. This was further cultured for 1 hour (1 hr) under a condition of adding phenformin (Sigma) to a final concentration of 1 mM or the solvent (DMSO) alone. The medium was discarded, the cells were washed with a phosphate buffer (to be referred to as PBS hereinafter, and then the cells were lysed by adding 0.15 ml of the aforementioned buffer A (however, the NaCl concentration was 150 mM, and various phosphatase inhibitors; 2 mM Na3VO4, 10 mM NaF, 25 mM β-glycerophosphate, 0.2 mM Na2MoO4, 20 nM okadaic acid, were added). The activity of AMPK in the cells was detected at the level of phosphorylation of molecules by a conventionally known SDS electrophoresis and a western blotting which uses an anti-phosphorylation AMPK antibody (Phospho-AMPK-α(Thr172) Antibody, Daiichi Pure Chemicals). In this case, in order to confirm that there is no difference in the amount of protein of AMPKα (an AMPK subunit which undergoes phosphorylation) among samples, a western blotting which uses an anti-AMPKα antibody (Daiichi Pure Chemicals) was simultaneously carried out. […] However, in the cell in which human ATP5B was expressed by transferring pcDNA-ATP5B, activation of AMPK by phenformin treatment was not found.
On the technique in general: In western blotting, separated proteins are transferred to a membrane and probed.

Test [4] has as its target T2, human ATP5B. Kind of test: GST-DHFR / MTX-phenformin GST pull-down of 35S-labeled ATP5B. Particulars: 10 μM MTX-phenformin fixed to GST-DHFR; wild type ATP5B. It is filed as binding. The procedure:
Promega) and 0.74 MBq of a radioisotope (redivue Pro-mix L-[35S]; Amersham) and in accordance with the protocols attached thereto. A 15 μl portion of this human ATP5B protein preparation liquid and 1 μg for each of the GST protein or GST-DHFR, purified on the glutathione Sepharose beads, were mixed and shaken at 4° C. for 1 hour after adding 0.3 ml of buffer A thereto. Thereafter, the protein binding to the GST protein or GST-DHFR on beads was co-precipitated by centrifugation. After repeating this operation 4 times, proteins in the precipitate were separated by SDS polyacrylamide gel electrophoresis in accordance with a conventionally known method, and the protein bound to the probe was detected by an autoradiography.

As to `[H]/N=C(/N)N/C(=N/[H])NCCc1ccccc1` [phenformin], the “binding with Asp 295 Val mutation type ATP5B” value in test [1] was “not able to confirm the binding; also recorded: disappearance”. Further, the “influence on binding of ATP5B and MTX-phenformin” value at human ATP5B [2] is reported as “obstructed”. Also, in test [3], the “binding with Glu 175 Val mutation type ATP5B” value was “not able to confirm the binding; also recorded: disappearance”. In addition, the “amount of about 60 kDa protein band (ATP5B) binding to the molecular chaperone protein” value at ATP5B is listed as “reduced”. The “phosphorylation level (activation) of AMPK” value with AMPK (HeLa S3 cell without ATP5B over-expression (empty vector- or pcDNA-LKB1-transferred), concentration of compounds A and B not given) is “significantly accelerated and activated”. The “activation of AMPK in cell over-expressing human ATP5B” value in the test on AMPK (pcDNA-ATP5B-transferred HeLa S3 cell, metformin 10 mM) is “not found; also recorded: disappearance”. Also, the “binding with human ATP5B (band of about 60 kDa, autoradiography)” value on human ATP5B [4] was “directly binds; also recorded: able to confirm binding”.

These data come from patent publication US8003331B2, “Method for identifying target protein of drug and method for screening therapeutic agent for diabetes using the target protein” (Astellas Pharma Inc., priority 2005, dated 2011).
